Source: PubChem BioAssay AID330 (DTP/NCI, 2004)
Where “and” joins values, the source holds several entries; their conditions need not be identical. Identical values can stand only once. Inconclusive results and toxic doses are left out.

Test system: P388 leukemia ip, CD2F1 mice, survival T/C
Assay: NCI In Vivo Anticancer Drug Screen. Data for tumor model P388 Leukemia (intraperitoneal) in CD2F1 (CDF1) mice
Settings: endpoint: median survival time, higher = longer survival
Outline: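 Mice carrying the transplanted tumor received test compound or vehicle. Survival was recorded in each group, and the value is the treated-group measurement divided by that of the vehicle-treated control group.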

[1] = dose: 12.5 mg/kg/injection, schedule: Q01DX009 (ip), vehicle: saline with Tween-80
[2] = dose: 25.0 mg/kg/injection, schedule: Q01DX009 (ip), vehicle: saline with Tween-80
[3] = dose: 50.0 mg/kg/injection, schedule: Q01DX009 (ip), vehicle: saline
[4] = dose: 100.0 mg/kg/injection, schedule: Q01DX009 (ip), vehicle: saline
[5] = dose: 200.0 mg/kg/injection, schedule: Q01DX009 (ip), vehicle: saline
[6] = dose: 50.0 mg/kg/injection, schedule: Q01DX009 (ip), vehicle: saline with Tween-80
[7] = dose: 50.0 mg/kg/injection, schedule: Q01DX005 (ip), vehicle: saline with Tween-80
[8] = dose: 100.0 mg/kg/injection, schedule: Q01DX005 (ip), vehicle: saline with Tween-80
[9] = dose: 200.0 mg/kg/injection, schedule: Q01DX005 (ip), vehicle: saline with Tween-80
[10] = dose: 100.0 mg/kg/injection, schedule: Q01DX001 (ip), vehicle: saline with Tween-80
[11] = dose: 200.0 mg/kg/injection, schedule: Q01DX001 (ip), vehicle: saline with Tween-80
[12] = dose: 100.0 mg/kg/injection, schedule: Q01DX009 (ip), vehicle: saline with Tween-80
[13] = dose: 50.0 mg/kg/injection, schedule: Q04DX002 (ip), vehicle: saline with Tween-80
[14] = dose: 100.0 mg/kg/injection, schedule: Q04DX002 (ip), vehicle: saline with Tween-80

With `CCCCCCCCCCCCCCCC[N+](C)(C)CCN=[N+]=[N-]` the T/C [1] was 110 % of control and the T/C [2] was 107 % of control.

With `Cc1cccc(NC(=O)NC2CCCCC2)c1` the T/C [3] was 103 % of control, the T/C [4] was 102 % of control and the T/C [5] was 93 % of control.

In the case of `CS(C)=O.CS(C)=O.[Cl][Rh]([Cl])([Cl])[Cl]`, the T/C (dose: 12.5 mg/kg/injection, schedule: Q04DX003 (ip), vehicle: saline) is reported as 100 % of control, the T/C (dose: 25.0 mg/kg/injection, schedule: Q04DX003 (ip), vehicle: saline) is reported as 109 % of control and the T/C (dose: 50.0 mg/kg/injection, schedule: Q04DX003 (ip), vehicle: saline) is reported as 118 % of control.

`O=C(Cc1ccncc1)c1cccnc1` was tested, and the T/C (dose: 12.5 mg/kg/injection, schedule: Q01DX001 (ip), vehicle: saline) was 101 % of control, the T/C (dose: 25.0 mg/kg/injection, schedule: Q01DX001 (ip), vehicle: saline) was 102 % of control and the T/C (dose: 50.0 mg/kg/injection, schedule: Q01DX001 (ip), vehicle: saline) was 107 % of control. For the same molecule, the T/C (dose: 100.0 mg/kg/injection, schedule: Q04DX002 (ip), vehicle: saline) was 98 % of control, the T/C (dose: 200.0 mg/kg/injection, schedule: Q04DX002 (ip), vehicle: saline) was 99 % of control and the T/C (dose: 400.0 mg/kg/injection, schedule: Q04DX002 (ip), vehicle: saline) was 105 % of control.

For `CSc1ncc(C=O)n1Cc1ccccc1`, the T/C (dose: 17.5 mg/kg/injection, schedule: Q01DX005 (ip), vehicle: Klucel (hydroxypropylcellulose) (HPC)) was 115 % of control, the T/C (dose: 35.0 mg/kg/injection, schedule: Q01DX005 (ip), vehicle: Klucel (hydroxypropylcellulose) (HPC)) was 98 % of control and the T/C (dose: 70.0 mg/kg/injection, schedule: Q01DX005 (ip), vehicle: Klucel (hydroxypropylcellulose) (HPC)) was 101 % of control.

In the case of `COC(=O)C12OCC34C(CC5C(C)=C(O)C(=O)CC5(C)C3C(O)C1O)OC(=O)C(OC(=O)C=C(C)C)C24` (configuration not stated) (tested in a mixture with another compound), the T/C (dose: 0.03 mg/kg/injection, schedule: Q01DX009 (ip), vehicle: saline + alcohol) is reported as 106 % of control, the T/C (dose: 0.06 mg/kg/injection, schedule: Q01DX009 (ip), vehicle: saline + alcohol) is reported as 113 % of control and the T/C (dose: 0.13 mg/kg/injection, schedule: Q01DX009 (ip), vehicle: saline + alcohol) is reported as 107 % of control. The T/C (dose: 0.25 mg/kg/injection, schedule: Q01DX009 (ip), vehicle: saline + alcohol) was 98 % of control, the T/C (dose: 0.5 mg/kg/injection, schedule: Q01DX009 (ip), vehicle: saline + alcohol) was 94 % of control and the T/C (dose: 1.0 mg/kg/injection, schedule: Q01DX009 (ip), vehicle: saline + alcohol) was 106 % of control. The T/C (dose: 2.0 mg/kg/injection, schedule: Q01DX009 (ip), vehicle: saline + alcohol) was 94 % of control.

With `C=Cn1c([N+](=O)[O-])cnc1/C=C/c1ccc(C(=O)O)cc1` the T/C (dose: 50.0 mg/kg/injection, schedule: Q01DX009 (ip), vehicle: Klucel (hydroxypropylcellulose) (HPC)) was 92 % of control and 97 % of control, the T/C (dose: 100.0 mg/kg/injection, schedule: Q01DX009 (ip), vehicle: Klucel (hydroxypropylcellulose) (HPC)) was 89 % of control and 90 % of control and the T/C (dose: 200.0 mg/kg/injection, schedule: Q01DX009 (ip), vehicle: Klucel (hydroxypropylcellulose) (HPC)) was 95 % of control.

For `CCC1CN2CCc3cc(OC)c(OC)cc3C2CC1CC1c2cc(OC)c(OC)cc2CCN1C(=O)C(Cc1c[nH]c2ccccc12)NC(=O)OC(C)(C)C` (configuration not stated), the T/C [2] was 105 % of control, the T/C [6] was 115 % of control and the T/C (dose: 66.0 mg/kg/injection, schedule: Q01DX009 (ip), vehicle: saline with Tween-80) was 104 % of control. For the same molecule, the T/C (dose: 100.0 mg/kg/injection, schedule: Q04DX003 (ip), vehicle: saline with Tween-80) was 104 % of control.

With `CCn1c(O)c(N=NC(=S)c2ccc3ccccc3n2)c2ccccc21` the T/C [3] was 104 % of control, the T/C [4] was 96 % of control and the T/C [5] was 86 % of control.

`CC1=Cc2cc(C)cc(C)c2C1=O` was tested, and the T/C [7] was 90 % of control, the T/C [8] was 93 % of control and the T/C [9] was 96 % of control.

With `O=C1Cc2c(Cl)cccc2C(=S)N1` the T/C (dose: 50.0 mg/kg/injection, schedule: Q01DX001 (ip), vehicle: saline with Tween-80) was 100 % of control, the T/C [10] was 100 % of control and the T/C [11] was 100 % of control.

In the case of `NC(C(=O)O)c1cc(=O)[nH]o1` (configuration not stated), the T/C (dose: 2.5 mg/kg/injection, schedule: Q01DX009 (ip), vehicle: Klucel (hydroxypropylcellulose) (HPC)) is reported as 98 % of control, the T/C (dose: 5.0 mg/kg/injection, schedule: Q01DX009 (ip), vehicle: Klucel (hydroxypropylcellulose) (HPC)) is reported as 93 % of control and the T/C (dose: 10.0 mg/kg/injection, schedule: Q01DX009 (ip), vehicle: Klucel (hydroxypropylcellulose) (HPC)) is reported as 101 % of control.

In the case of `COc1cc(Br)c(C(=O)Nc2ccc(O)cc2)cc1OC`, the T/C (dose: 25.0 mg/kg/injection, schedule: Q01DX009 (ip), vehicle: other) is reported as 103 % of control and 107 % of control, the T/C (dose: 50.0 mg/kg/injection, schedule: Q01DX009 (ip), vehicle: other) is reported as 110 % of control and the T/C (dose: 100.0 mg/kg/injection, schedule: Q01DX009 (ip), vehicle: other) is reported as 106 % of control and 118 % of control. For the same molecule, the T/C (dose: 200.0 mg/kg/injection, schedule: Q01DX009 (ip), vehicle: other) was 106 % of control and 117 % of control and the T/C (dose: 400.0 mg/kg/injection, schedule: Q01DX009 (ip), vehicle: other) was 106 % of control.

For `CC(=O)OCC1OC(N(CCCl)CCCl)C(OC(C)=O)C(OC(C)=O)C1OC(C)=O` (configuration not stated), the T/C (dose: 1.25 mg/kg/injection, schedule: Q01DX005 (ip), vehicle: distilled water + Tween-80) was 106 % of control, the T/C (dose: 2.5 mg/kg/injection, schedule: Q01DX005 (ip), vehicle: distilled water + Tween-80) was 110 % of control and 115 % of control and the T/C (dose: 5.0 mg/kg/injection, schedule: Q01DX005 (ip), vehicle: distilled water + Tween-80) was 110 % of control and 117 % of control and 119 % of control. For the same molecule, the T/C (dose: 10.0 mg/kg/injection, schedule: Q01DX005 (ip), vehicle: distilled water + Tween-80) was 173 % of control, the T/C (dose: 20.0 mg/kg/injection, schedule: Q01DX005 (ip), vehicle: distilled water + Tween-80) was 187 % of control [middle of 4 runs] and the T/C (dose: 40.0 mg/kg/injection, schedule: Q01DX005 (ip), vehicle: distilled water + Tween-80) was 199 % of control.

With `Clc1ccc(Cl)nn1` the T/C [6] was 97 % of control, the T/C [12] was 100 % of control and the T/C (dose: 200.0 mg/kg/injection, schedule: Q01DX009 (ip), vehicle: saline with Tween-80) was 100 % of control.

In the case of `Cc1cc(C)c(C#N)c(SSC(Cl)(Cl)Cl)n1`, the T/C [7] is reported as 96 % of control, the T/C [8] is reported as 93 % of control and the T/C [9] is reported as 91 % of control.

For `O=C1CSC(c2ccccc2O)N1c1ccc(N2C(=O)CSC2c2ccccc2O)cc1` (configuration not stated), the T/C [10] was 90 % of control, the T/C [11] was 87 % of control and the T/C (dose: 400.0 mg/kg/injection, schedule: Q01DX001 (ip), vehicle: saline with Tween-80) was 87 % of control.

`CN=C(N)N/N=C(\c1ccccc1)c1ccc(I)cc1` was tested, and the T/C (dose: 25.0 mg/kg/injection, schedule: Q04DX002 (ip), vehicle: saline with Tween-80) was 104 % of control, the T/C [13] was 107 % of control and the T/C [14] was 107 % of control.

For `CN(C)C1=c2c(=O)n(C)c(=O)n(C)c2=NC2C=CC=CN12` (configuration not stated), the T/C (dose: 50.0 mg/kg/injection, schedule: Q01DX005 (ip), vehicle: Klucel (hydroxypropylcellulose) (HPC)) was 100 % of control, the T/C (dose: 100.0 mg/kg/injection, schedule: Q01DX005 (ip), vehicle: Klucel (hydroxypropylcellulose) (HPC)) was 96 % of control and the T/C (dose: 200.0 mg/kg/injection, schedule: Q01DX005 (ip), vehicle: Klucel (hydroxypropylcellulose) (HPC)) was 86 % of control.

With `CCOC(=O)C1CCc2ccccc2N1` (configuration not stated) the T/C [7] was 99 % of control, the T/C [8] was 103 % of control and the T/C [9] was 104 % of control.

`O=C1C2C3CCC(C2C(=O)N1CO)C1C2C(=O)N(CO)C(=O)C2C31` (configuration not stated) was tested, and the T/C [1] was 105 % of control, the T/C [2] was 102 % of control and 116 % of control and the T/C [6] was 166 % of control. For the same molecule, the T/C [12] was 205 % of control and 208 % of control.

`COc1ccc(/C=N\N=C(/[O-])c2ccc(Cl)cc2)cc1.COc1ccc(/C=N\N=C(/[O-])c2ccc(Cl)cc2)cc1.[Mn+2].[OH3+].[OH3+]` was tested, and the T/C [13] was 102 % of control, the T/C [14] was 102 % of control and the T/C (dose: 200.0 mg/kg/injection, schedule: Q04DX002 (ip), vehicle: saline with Tween-80) was 104 % of control.

`O=c1[nH]cc(CSc2ncc[nH]2)c(=O)[nH]1` was tested, and the T/C (dose: 30.0 mg/kg/injection, schedule: Q01DX005 (ip), vehicle: saline) was 119 % of control, the T/C (dose: 60.0 mg/kg/injection, schedule: Q01DX005 (ip), vehicle: saline with Tween-80) was 119 % of control and the T/C (dose: 60.0 mg/kg/injection, schedule: Q01DX005 (ip), vehicle: saline) was 124 % of control.
